Structures can show the parent of a compound that is named as a salt.
Assays:
[1] = High temperature stress stability at 100° C., HPLC assay; type: physicochemical; conditions: in the light
Description: The two samples, lercanidipine hydrochloride hemihydrate, and anhydrous lercanidipine hydrochloride were heated, in the light, at 100° C. for 48 hours. The samples were tested at the following times; 0 hours, 24 hours, and 48 hours. The purity of the lercanidipine was checked by HPLC analysis under the following conditions:
Column: m-Bondapak C-18 (Waters), particle size […], 300×3.9 mm i.d.

[2] = Water content at 75% relative humidity (Karl-Fisher); type: physicochemical
Description: Samples of anhydrous lercanidipine hydrochloride and lercanidipine hydrochloride hemihydrate were placed in open polyethylene bags in flasks and heated, in the dark, at 60° C. and 75% relative humidity. The samples were checked for hygroscopicity by determination of the water content using the Karl-Fisher method. The samples were tested at 8 and 15 days.
Two additional samples of the anhydrous lercanidipine hydrochloride and lercanidipine hydrochloride hemihydrate were placed in open polyethylene bags in flasks and heated, in the dark, at 40° C. and 75% relative humidity. The samples were tested as described above at 8 and 15 days.

[3] = tested on: mouse peritoneal macrophages; assay: Cholesteryl ester hydrolysis in macrophages; type: cell-based; conditions: AcLDL 50 μg/ml + S-58035 1 μg/ml
Description: These experiments were performed by incubating cells preloaded with [^3 H]cholesterol in the presence of the specific ACAT inhibitor S-58035. The blockage of intracellular reesterification of cholesterol allowed the assessment of the ability of cells to hydrolyze the accumulated cholesterol esters.
For studies involving the quantitation of the hydrolysis of cholesteryl esters in cytoplasmic lipid droplets, cells, prepared according to the procedure in Example 6A, are loaded with cholesteryl esters by exposure for 24 hours to the medium containing 50 μg/ml acetyl LDL. [1,2-^3 H]Cholesterol is included in all loading media at a concentration of 0.5 μCi/ml. After 24 hours loading period, during which time the radiolabeled cholesterol is incorporated and esterified, the cell monolayers are washed and incubated an additional 24 hours in medium containing 0.1% bovine serum albumin to allow the intracellular pools of labelled cholesterol to equilibrate to the same specific activity. To quantitate cholesteryl ester hydrolysis, the loaded cells are incubated for up to 24 hours in Dulbecco's minimum essential medium containing, 0.1% bovine serum albumin, lercanidipines, and the compound S-58035, an inhibitor of acyl-coenzyme A-cholesterol acyltransferase. The inhibition of acyl-coenzyme A-cholesterol acyltransferase prevents the reesterification of any free cholesterol generated by cholesteryl ester hydrolysis and thus allows assessment of the activity of the hydrolase. The hydrolysis of the cholesteryl esters is quantified by determining the decrease of radiolabeled cholesteryl esters (E. H. Harrison et al., J. Lipid. Res. 31: […] with phosphate buffered saline and extracted with hexane:isopropanol (3:2 v/v). The media were extracted with chloroform:methanol (2:1 v/v). After solvent removal, free and esterified cholesterol were separated by TLC (isooctane:diethyl ether:acetic acid, 75:25:2 by volume). Cholesterol mass or radioactivity of the spots were determined by an enzymatic method (Boehringer Mannheim, Germany) (F. Bernini et al., Atherosclerosis 104: 19 (1993)) or by liquid scintillation counting (Lipoluma Lumac, Landgraf, The Netherlands) respectively.

SMILES: COC(=O)C1=C(C)NC(C)=C(C(=O)OC(C)(C)CN(C)CCC(c2ccccc2)c2ccccc2)C1c1cccc([N+](=O)[O-])c1 (stereo not shown) [Hemihydrate, Lercanidipine hydrochloride hemihydrate, reference compound]
- Assay % by HPLC ([1]; 0 hr): 99.85%
- Assay % by HPLC ([1]; 24 hrs, hydrochloride hemihydrate, 1440 min): 92.35%
- Assay % by HPLC ([1]; 48 hrs, hydrochloride hemihydrate, 2880 min): 90.96%
- Water Content ([2]; 40° C., 0 days): 1.42%
- Water Content ([2]; 40° C., 8 days): 3.14%
- Water Content ([2]; 40° C., 15 days): 3.05%
- Water Content ([2]; 60° C., 0 days): 1.42%
- Water Content ([2]; 60° C., 8 days): 4%
- Water Content ([2]; 60° C., 15 days): 4.04%

SMILES: CCCCCCCCCC[Si](C)(C)CCC(=O)NC(Cc1ccc(C)cc1)c1ccccc1 (stereo not shown) [Example S-58035, reference compound]
- % of cholesteryl ester [3]: 15 ± 0.5%

SMILES: COC(=O)C1=C(C)NC(C)=C(C(=O)OC(C)(C)CN(C)CCC(c2ccccc2)c2ccccc2)C1c1cccc([N+](=O)[O-])c1 (stereo not shown) [Anhydrous, METHYL 1,1-N-TRIMETHYL-N-(3,3-DIPHENYLPROPYL)-2-AMINOETHYL 1,4-DIHYDRO-2,6-DIMETHYL-4-(3-NITROPHENYL) PYRIDINE-3,5-DICARBOXYLATE (LERCANIDIPINE) HYDROCHLORIDE]
- Assay % by HPLC ([1]; 0 hr, HYDROCHLORIDE): 99.74%
- remaining at 24 h ([1]; solid, 24 hrs): 99.4%
- remaining at 48 h ([1]; solid, 48 hrs): 99%
- Water Content ([2]; 40° C., 0 days, HYDROCHLORIDE): 0.28%
- Water Content ([2]; 40° C., 8 days, HYDROCHLORIDE): 0.3%
- Water Content ([2]; 40° C., 15 days, HYDROCHLORIDE): 0.32%
- Water Content ([2]; 60° C., 0 days, HYDROCHLORIDE): 0.28%
- Water Content ([2]; 60° C., 8 days, HYDROCHLORIDE): 0.85%
- Water Content ([2]; 60° C., 15 days, HYDROCHLORIDE): 0.77%

From patent US5912351A, “Anhydrous 1,4-Dihydropyridines and salts thereof” (Recordati, S.A. Chemical and Pharmaceutical Company, priority 1995, dated 1999)
